Measurements taken from US20160090351A1, “INHIBITORS OF DEUBIQUITINATING PROTEASES” (BRANDEIS UNIVERSITY, priority 2013, published 2016).

Key:
[1] = system: DUBs; test: decomposition of high molecular weight ubiquitinated proteins (HMW-Ub) in lysates of HEK 293T cells expressing HA-Ub; format: biochemical, human; details: for DUB inhibitory activity, SAR in words: relative to C4 or parent analog
Procedure: FIG. 30 depicts data showing that diphenylcarbonates inhibit the decomposition of high molecular weight ubiquitinated proteins (HMW-Ub). Lysates were prepared from HEK 293T cells expressing HA-ubiquitin. Samples were incubated at 37° C. and reactions were quenched by the addition of reducing Laemmli buffer. HMW-Ub was assessed by SDS-PAGE and immunoblotting with anti-HA antibody. A. Representative immunoblots measuring the decomposition of HMW-Ub in lysates treated with either the DMSO vehicle, G5 (10 μM) or C4 (500 μM). B. Plot of the decomposition of HMW-Ub in lysates treated with DMSO and C4 (500 μM) (N=2; error bars denote range). C. Inhibition of HMW-Ub decomposition by diphenylcarbonates. Lysates were treated with diphenylcarbonates (50 μM). “-” denotes no treatment; D, 1% DMSO vehicle; IU1, an USP14-specific inhibitor; Bort, bortezomib, a proteasome inhibitor. D. Representative decomposition of HMW-Ub after 2 h incubation in the presence of varying concentrations of C4. See also FIG. 36. E. Quantitation of D. The values of EC50 reported in FIG. 29B are the average and S.E.M. of at least 3 independent experiments. See also FIG. 37 and FIG. 38.
Cells overexpressing HA-ubiquitin were prepared as above. Pellets were typically stored at −80° C. until required, at which time they were thawed on ice. Cell lysis was performed in lysis buffer using a Dounce homogenizer (10 strokes, with grinding, on ice: typical yield approx. 2-5 mg protein per transfected T75 flask for HEK 293T cells; 1-3 mg protein from a T75 flask for Cos-1). Crude lysate was centrifuged at 17000 g for 10 min at 4° C., after which time the concentration of the lysate was normalized to 1 mg/mL. The lysate was aliquoted into PCR strip tubes (typical volumes 75-50 μL) and compound in DMSO was added to this to give a final concentration of DMSO of 1%. Tubes were briefly centrifuged, overlaid with Chill-out wax (50 μL) and placed in a PCR machine at 37° C. with heated lid set to 37° C. Aliquots (9 μL) were removed at the stated times and immediately quenched in (2× final concentration) reducing (dithiothreitol) loading buffer and frozen (−19° C.) till required. Western blot analysis was carried out using standard methods. Samples were resolved by SDS-PAGE, transferred to PVDF [(0.45 μm) (Towbin buffer, tank apparatus, 90 V 1 hour, then overnight at 30 V, 4° C.)] then blocked in 15% milk in TBS-T HS (100 mM Tris HCl, pH 7.6, 500 mM NaCl, 0.5% […]) for at least 2 hours at RT. Afterward, membrane was washed in TBS-T HS then probed with anti HA-HRP (1:18000) for 1.33 hours at RT. Membrane was washed 3 times in TBS-T HS (15 mins) then once in TBS (15 mins) and exposed to ECL II and visualized using blue biofilm. […] When required, membranes were stripped in 100 mM glycine pH 4, 500 mM NaCl, 1% SDS, 5 mM BME, at 55° C. for 19 mins, then analyzed.
Lysates were prepared from HEK 293T cells expressing N-terminally HA-tagged ubiquitin (HA-Ub) to facilitate the observation of ubiquitinated proteins. In the absence of a DUB inhibitor, the HMW-Ub pool decomposed with a half-life of 34 min (FIG. 30A,B). […] Similar results were obtained in lysates prepared from Cos-1 cells expressing HA-Ub.

[2] = system: Bcr-Abl kinase; test: Bcr-Abl levels in K562 cells by immunoblotting; format: cell-based, human; details: for levels of Bcr-Abl: 50 μM, 2 h
Procedure: K562 cells are from a myelogenous leukemia line that expresses Bcr-Abl kinase. A. K562 cells were treated with TU50 for 24 hours after which time the cells were treated with annexin V-FITC and propidium iodide. Cells were then analyzed by flow cytometry. Cells showing only annexin V-FITC were considered apoptotic whereas cells showing both annexin V-FITC and propidium iodide were considered necrotic. N=2. All points show a significant difference to the vehicle (DMSO) with p<0.05. […] All points show a significant difference to vehicle (DMSO) with p<0.02. C. Same as A, but the incubation period was 8 hours. N>2. All points show a significant difference to DMSO with p<0.02. D, K562 cells were treated with TU50 for 4 hours. Samples were analyzed by SDS-PAGE and immunoblotting with anti-Bcr-Abl antibody. E. Quantitation of blot in D. The signal for tubulin was used to normalize the Bcr-Abl signal. N=3.
(§1) FIG. 34 depicts data showing that diphenylcarbonates cause the accumulation of HMW-Ub and reduce the levels of Bcr-Abl in K562 cells. A. K562 cells were treated with diphenyl carbonates (50 μM) for 2 h and then assayed for the accumulation of K48-linked Ub. B. As in A, but Bcr-Abl was measured by immunoblotting with anti-Abl antibodies. C. K562 cells were treated with C17 (50 μM) in the presence and absence of bortezomib (6 μM) for 4 hours and Bcr-Abl was measured by immunblotting with anti-Abl antibodies. D. Quantitation of blot in C. Significance: DMSO relative to C17 and bortezomib p=0.002; DMSO relative to C17, p=0.03. E. K562 cells were treated with C15 for 4 hours then analyzed for SMAD4 monoubiquitination by western blot. F. Quantitation of blots in A. (N=3). See also FIG. 40.
(§2) FIG. 40 depicts data showing that diphenyl carbonates induce the degradation of Bcr-Abl kinase. A. K562 cells were treated with C17 for 24 h (1 dose) then analyzed for Bcr-Abl expression by western blot with anti-Abl antibody. B. Quantitation of blots in A normalized to actin. C. K562 cells were treated with C17 for 24 h then the amount of cells in G1 and apoptosis were recorded (N=3). D. K562 were treated with C15 for 4 h then analyzed for Bcr-Abl expression using western blot. E. Quantitation of Bcr-Abl from D normalized to tubulin (N=4). F. Same K562 lysates were separately analyzed for K63-linked ubiquitin. G. Quantitation of blots in F (N=4). Differences between all bars is significant p<0.01). H. K562 cells were treated with C15 for 24 h after which time cells were fixed in ethanol, treated with propodium iodide/RNAse then analyzed by FACS. Viability was calculated using forward and side scatter. I. Same experiment as H but red fluorescence was measured to determine DNA content
(§3) Transfected cells were harvested 1.5 days post transfection. […] Typically clarified lysate was analyzed.

[3] = system: K562 cells; test: accumulation of K48- and K63-linked Ub in K562 cells; format: cell-based, human; details: for accumulation of K48-linked HMW-Ub: 50 μM, 2 h
Procedure: as §1, §2, §3

SMILES | increase of inhibitory potency relative to C4 (factor) [1] | levels of Bcr-Abl [2] | accumulation of K48-linked HMW-Ub [3] | Bcr-Abl, dose response ([2]; C15 4 h) | accumulation of K63-linked ubiquitin ([3]; C15 4 h) | DUB inhibitory activity, SAR in words [1] | stabilization of the HMW-Ub pool ([1]; HEK 293T HA-Ub lysates, 37° C.)
NCc1ccc(OC(=O)Oc2ccc(Cl)cc2)cc1 [Compound C14, 4-(aminomethyl)phenyl(4-chlorophenol)carbonate] | approximately 10 | caused a decrease in the levels of Bcr-Abl | caused the accumulation of K48-linked HMW-Ub in K562 cells |  |  |  | 
NCc1ccc(OC(=O)Oc2ccc(Br)cc2)cc1 [Compound C15, 4-(aminomethyl)phenyl(4-bromophenyl)carbonate] | approximately 10 | caused a decrease in the levels of Bcr-Abl | caused the accumulation of K48-linked HMW-Ub in K562 cells | dose dependent decrease in Bcr-Abl | caused the accumulation of K63-linked ubiquitin |  | 
NCc1ccc(OC(=O)Oc2ccc3ccccc3c2)cc1 [Compound C17] |  | caused a decrease in the levels of Bcr-Abl | caused the accumulation of K48-linked HMW-Ub in K562 cells |  |  | improved potency relative to C4 | 
NCc1ccc(OC(=O)Oc2cccc3ccccc23)cc1 [Compound C18] |  | caused a decrease in the levels of Bcr-Abl | caused the accumulation of K48-linked HMW-Ub in K562 cells |  |  | improved potency relative to C4 | 
O=C1/C(=C/c2ccc([N+](=O)[O-])cc2)CS(=O)(=O)C/C1=C\c1ccc([N+](=O)[O-])cc1 [Compound G5, reference compound] |  |  |  |  |  |  | stabilized the HMW-Ub pool
